Data published in patent US8735611B2, “Crystalline forms of cabazitaxel” (ScinoPharm Taiwan, Ltd., priority 2011, dated 2014).

Test: Dynamic vapor sorption (DVS) analysis
Type: physicochemical
Conditions: over 2 cycles tested; consistent with loss of AcOH upon dehumidification, confirmed by 1H NMR after DVS
Description: XRPD analysis confirmed that Form C9 is crystalline. […] (FIG. 10c). Decomposition occurs at about 220° C., as indicated by the large weight loss observed by TGA around this temperature. […] This was confirmed by ^1H NMR spectroscopy after DVS analysis. KF titration of Form C9 indicated the presence of about 2.3% water.
A hot solution of cabazitaxel (0.1 g) in 1 mL of AcOH and 0.5 mL of H2O was slowly cooled to room temperature. The mixture was filtered and the resulting solids were dried in a vacuum oven to give cabazitaxel Form C9 as a white solid (melting point: 152.5-159.3° C.). […] This was consistent with a loss of AcOH upon dehumification, which was confirmed by ^1H NMR spectroscopic analysis after the DVS test.

## CO[C@H]1C(=O)[C@]2(C)[C@@H](OC)C[C@H]3OC[C@@]3(OC(C)=O)[C@H]2[C@H](OC(=O)c2ccccc2)[C@]2(O)C[C@H](OC(=O)[C@H](O)[C@@H](NC(=O)OC(C)(C)C)c3ccccc3)C(C)=C1C2(C)C [Form C9, cabazitaxel]
  weight loss and gain upon changing humidity (DVS): non-perfectly reversible weight loss and gain upon changing humidity
